Measurements reported in PubChem BioAssay (NCI).
Values joined by “and” are separate entries in the source; they are usually repeats but may differ in a detail not shown here. Equal values may be shown once.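 Cells were grown in 96-well plates and exposed to each compound for 48 hours at five concentrations; endpoints were interpolated linearly between bracketing concentrations, or set to the highest concentration if not reached. GI50 marks 50% less growth. TGI marks complete inhibition of growth.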

What was measured:
Assay in all cases: DTP human tumour cell line panel, 48 h
[1] = tested on: CCRF-CEM leukemia
[2] = tested on: EKVX NSCLC
[3] = tested on: HS 578T breast
[4] = tested on: K-562 leukemia
[5] = tested on: LOX IMVI melanoma
[6] = tested on: MALME-3M melanoma
[7] = tested on: NCI-H522 lung
[8] = tested on: SN12C renal
[9] = tested on: SW-620 colon
[10] = tested on: TK-10 renal

## CCOC(=O)c1c(C)nc2ccc(Cl)cc2c1-c1ccccc1
[1]
  GI50: 18.8 µM
  TGI: 48.9 µM
[2]
  GI50: 25.6 µM
  TGI: 88.2 µM
[3]
  GI50: 19.6 µM
  TGI: 52.1 µM
[4]
  GI50: 20.1 µM
  TGI: > 100 µM
[5]
  GI50: 17700 nM
  TGI: 37.8 µM
[6]
  GI50: 17.6 µM
  TGI: 42.3 µM
[7]
  GI50: 14200 nM
  TGI: 36.6 µM
[8]
  GI50: 16.8 µM
  TGI: 32.7 µM
[9]
  GI50: 19.2 µM
  TGI: 47 µM
[10]
  GI50: 34.4 µM
  TGI: > 100 µM

## C=C1C(=O)O[C@@H]2C(=O)[C@@H](C)[C@@H]3C=CC(=O)[C@@]3(C)[C@@H](OC(=O)/C(C)=C\C)[C@H]12
[1]
  TGI: 2.24 µM
[2]
  TGI: 2.53 µM
[3]
  TGI: > 58.8 µM
[4]
  TGI: 1.64 µM
[5]
  TGI: 1.6 µM
[6]
  TGI: 0.948 µM
[7]
  TGI: 0.25 µM
[8]
  TGI: 2.85 µM
[9]
  TGI: 1.76 µM
[10]
  TGI: 1.74 µM

## CCN(CC)CCOc1ccc(/C(=C(\C)Cc2ccc(OC)cc2)c2ccc(OC(=O)NCc3ccccc3)cc2)cc1
[1]
  GI50: 2.34 µM
  TGI: 6.45 µM
[2]
  GI50: 2.63 µM
  TGI: 11.5 µM
[3]
  GI50: 2.36 µM
  TGI: 6.16 µM
[4]
  GI50: 1.75 µM
  TGI: 4.52 µM
[5]
  GI50: 1590 nM
  TGI: 3 µM
[6]
  GI50: 1.72 µM
  TGI: 3.3 µM
[7]
  GI50: 1930 nM
  TGI: 4.24 µM
[8]
  GI50: 1.73 µM
  TGI: 3.21 µM
[9]
  GI50: 1.91 µM
  TGI: 3.59 µM
[10]
  GI50: 2.68 µM
  TGI: 6.77 µM

## S=c1nc2[nH]ncc2c(N/N=C/c2ccccc2)[nH]1
[1]
  GI50: 78.6 µM
  TGI: > 100 µM
[2]
  GI50: > 100 µM
  TGI: > 100 µM
[3]
  GI50: > 100 µM
  TGI: > 100 µM
[4]
  GI50: > 100 µM
  TGI: > 100 µM
[5]
  GI50: 64000 nM
  TGI: > 100 µM
[6]
  GI50: > 100 µM
  TGI: > 100 µM
[7]
  GI50: > 100000 nM
  TGI: > 100 µM
[8]
  GI50: > 100 µM
  TGI: > 100 µM
[9]
  GI50: > 100 µM
  TGI: > 100 µM
[10]
  GI50: > 100 µM
  TGI: > 100 µM

## N#CC(=S)Nc1ccc(Cl)c(Cl)c1
[1]
  TGI: 15.2 µM
[2]
  TGI: 61.1 µM
[3]
  GI50: 11.3 µM
  TGI: > 100 µM
[4]
  TGI: 46.9 µM
[5]
  TGI: 66.2 µM
[6]
  TGI: > 54.7 µM
[7]
  GI50: 3730 nM
  TGI: 24.2 µM
[8]
  TGI: > 68.5 µM
[9]
  TGI: > 100 µM
[10]
  TGI: > 84.6 µM

## O=C(O)C1NCCc2c1[nH]c1ccccc21 (centres undefined)
[1]
  GI50: > 100 µM
  TGI: > 100 µM
[2]
  TGI: > 100 µM
[3]
  TGI: > 10 µM
[4]
  GI50: > 100 µM
  TGI: > 100 µM
[5]
  TGI: > 100 µM
[6]
  GI50: > 100 µM
  TGI: > 100 µM
[7]
  GI50: > 100000 nM
  TGI: > 100 µM
[8]
  GI50: > 100 µM
  TGI: > 100 µM
[9]
  GI50: > 100 µM
  TGI: > 100 µM
[10]
  GI50: > 100 µM
  TGI: > 100 µM

## O=C(Nc1nccs1)c1cc2c(cc1Cl)Sc1nccn1S2(=O)=O
[1]
  GI50: 5.05 µM
  TGI: 24.8 µM
[2]
  GI50: 20.6 µM
  TGI: 44.7 µM
[3]
  GI50: 28.5 µM
  TGI: 91.7 µM
[4]
  GI50: 15.9 µM
  TGI: 37.1 µM
[5]
  GI50: 10900 nM
  TGI: 25.6 µM
[6]
  GI50: 20 µM
  TGI: 37.2 µM
[7]
  GI50: 1230 nM
  TGI: 2.85 µM
[8]
  GI50: 16.8 µM
  TGI: 32.6 µM
[9]
  GI50: 16.8 µM
  TGI: 42 µM
[10]
  GI50: 18.9 µM
  TGI: 34.4 µM

## ClCc1ccc(-c2ccc(Cn3cnc4c(Cl)nc(Cl)nc43)cc2)cc1
[1]
  GI50: 2.36 µM
  TGI: 5.9 µM
[2]
  GI50: 3.32 µM
  TGI: 15.5 µM
[3]
  GI50: 3.14 µM
  TGI: 11.1 µM
[4]
  GI50: 10.4 µM
  TGI: > 100 µM
[5]
  GI50: 1640 nM
  TGI: 3.2 µM
[6]
  GI50: 7.06 µM
  TGI: 23.8 µM
[7]
  GI50: 2330 nM
  TGI: 6.79 µM
[8]
  GI50: 2.72 µM
  TGI: 8.93 µM
[9]
  GI50: 1.83 µM
  TGI: 3.41 µM
[10]
  GI50: 2.11 µM
  TGI: 4.42 µM

## O=C(Nc1ccccc1)Nc1cccc(-n2cc(-c3ccncc3)c(-c3ccc(O)c(Cl)c3)n2)c1
[1]
  GI50: 3.22 µM
  TGI: 27.5 µM
[3]
  GI50: 3.24 µM
  TGI: > 100 µM
[4]
  GI50: 3.59 µM
  TGI: 13.4 µM
[5]
  GI50: 2540 nM
  TGI: 25.6 µM
[6]
  GI50: 2.25 µM
  TGI: 6.02 µM
[7]
  GI50: 2260 nM
  TGI: 6.73 µM
[8]
  GI50: 4.13 µM
  TGI: > 100 µM
[9]
  GI50: 3.67 µM
  TGI: 38.4 µM
[10]
  GI50: 6.91 µM
  TGI: 54.6 µM

## C/C(CC(=O)NNc1ccc([N+](=O)[O-])cc1)=N\Nc1ccc([N+](=O)[O-])cc1
[1]
  GI50: 4.76 µM
  TGI: > 100 µM
[2]
  GI50: 22.4 µM
  TGI: > 100 µM
[3]
  GI50: 17.4 µM
  TGI: > 100 µM
[4]
  GI50: 0.622 µM
  TGI: > 100 µM
[5]
  GI50: 2720 nM
  TGI: > 100 µM
[6]
  GI50: 10.6 µM
  TGI: 66.5 µM
[7]
  GI50: 776 nM
  TGI: 7.92 µM
[8]
  GI50: 17.8 µM
  TGI: > 100 µM
[9]
  GI50: 3.84 µM
  TGI: > 100 µM
[10]
  GI50: 13.4 µM
  TGI: 35 µM

## C=C1C(=O)O[C@H]2[C@H]1CC/C(Cn1cc(Cn3ccc4ccccc43)nn1)=C\CC[C@@]1(C)O[C@@H]21
[1]
  GI50: 0.298 µM
  TGI: 1.73 µM
[2]
  GI50: 1.86 µM
  TGI: 4.22 µM
[3]
  GI50: 2.9 µM
  TGI: 14.2 µM
[4]
  GI50: 1.77 µM
  TGI: 5.65 µM
[5]
  GI50: 1590 nM
  TGI: 3.08 µM
[6]
  GI50: 1.59 µM
  TGI: 3.34 µM
[7]
  GI50: 1270 nM
  TGI: 2.69 µM
[8]
  GI50: 1.65 µM
  TGI: 3.46 µM
[9]
  GI50: 1.42 µM
  TGI: 3.01 µM
[10]
  GI50: 1.65 µM
  TGI: 3.05 µM

## CC(=O)O[C@H]1C(=O)O[C@@H]2C[C@H]3C(C)=CC(=O)[C@@H](O)[C@]3(C)[C@H]3[C@@]4(O)OC[C@]32[C@@H]1[C@@H](C)[C@H]4O
[1]
  GI50: 0.015 µM
  TGI: 0.073 µM and 0.572 µM
[2]
  GI50: 0.159 µM
  TGI: 1.12 µM and 0.219 µM
[3]
  TGI: 0.19 µM
[4]
  GI50: 0.0188 µM
  TGI: 0.125 µM and 0.128 µM
[5]
  GI50: < 10 nM
  TGI: 0.0642 µM and 0.442 µM
[6]
  GI50: < 0.01 µM
  TGI: 0.062 µM and 0.0429 µM
[7]
  GI50: < 11.6 nM
  TGI: 0.226 µM and 0.0582 µM
[8]
  GI50: 0.0304 µM
[9]
  GI50: 0.033 µM
  TGI: 0.445 µM and 0.653 µM

## CNNCc1ccc(C(=O)NC(C)C)cc1
[1]
  TGI: > 500 µM
[2]
  TGI: > 500 µM
[3]
  TGI: > 500 µM
[4]
  GI50: > 500 µM
  TGI: > 500 µM
[5]
  TGI: > 500 µM
[6]
  TGI: > 500 µM
[7]
  TGI: > 500 µM
[8]
  TGI: > 500 µM
[9]
  TGI: > 500 µM
[10]
  TGI: > 500 µM
